Tests used:
[1] = DRUGMATRIX: Sigma2 radioligand binding (ligand: [3H] Ifenprodil); type: cell membranes, Rattus norvegicus, Wistar, Brain, Membrane; details: Not Active = under 50% inhibition at 10 µM
[2] = target: T1, Muscarinic acetylcholine receptor M5 (Homo sapiens, UniProt P08912); type: cell membranes, CHO-K1, Membrane; details: cho-k1; note: in other assays of this panel Not Active means under 50% inhibition at 10 µM
T1 sequence (P08912 whole entry): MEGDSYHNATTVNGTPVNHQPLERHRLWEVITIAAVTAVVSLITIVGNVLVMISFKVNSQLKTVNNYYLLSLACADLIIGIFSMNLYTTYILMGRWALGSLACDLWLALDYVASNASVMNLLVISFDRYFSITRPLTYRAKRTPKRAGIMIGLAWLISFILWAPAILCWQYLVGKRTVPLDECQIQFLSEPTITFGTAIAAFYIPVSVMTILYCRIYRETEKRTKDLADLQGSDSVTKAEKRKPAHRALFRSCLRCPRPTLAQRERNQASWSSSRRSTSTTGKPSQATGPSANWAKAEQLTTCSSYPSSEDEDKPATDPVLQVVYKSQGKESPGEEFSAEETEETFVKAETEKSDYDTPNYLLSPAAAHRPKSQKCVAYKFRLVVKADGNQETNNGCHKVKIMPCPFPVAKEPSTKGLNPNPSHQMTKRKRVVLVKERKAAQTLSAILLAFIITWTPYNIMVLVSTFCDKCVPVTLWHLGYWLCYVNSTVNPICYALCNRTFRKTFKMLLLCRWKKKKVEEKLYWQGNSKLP

[3] = DRUGMATRIX: GABAA, Muscimol, Central radioligand binding (ligand: [3H] Muscimol); type: cell membranes, Rattus norvegicus, Wistar, Brain, Membrane; details: Not Active = under 50% inhibition at 10 µM
[4] = DRUGMATRIX: GABAA, Chloride Channel, TBOB radioligand binding (ligand: [3H] TBOB); type: cell membranes, Rattus norvegicus, Wistar, Cerebral cortex, Membrane; details: Not Active = under 50% inhibition at 10 µM
[5] = target: T2, Cholecystokinin receptor type A (Homo sapiens, UniProt P32238); type: cell membranes, Membrane; details: 1321-n1; note: in other assays of this panel Not Active means under 50% inhibition at 10 µM
T2 sequence (P32238 whole entry): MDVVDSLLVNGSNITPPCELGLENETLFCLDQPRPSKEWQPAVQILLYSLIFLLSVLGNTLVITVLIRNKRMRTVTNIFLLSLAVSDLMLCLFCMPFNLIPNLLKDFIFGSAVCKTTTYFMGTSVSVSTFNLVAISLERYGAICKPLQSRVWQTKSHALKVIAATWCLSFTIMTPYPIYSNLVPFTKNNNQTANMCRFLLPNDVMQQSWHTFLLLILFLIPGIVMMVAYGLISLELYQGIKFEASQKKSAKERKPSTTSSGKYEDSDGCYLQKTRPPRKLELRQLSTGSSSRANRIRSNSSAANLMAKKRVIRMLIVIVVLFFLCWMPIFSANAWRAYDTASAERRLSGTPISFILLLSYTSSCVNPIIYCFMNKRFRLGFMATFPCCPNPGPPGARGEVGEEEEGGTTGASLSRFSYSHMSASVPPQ

[6] = DRUGMATRIX: Calcium Channel Type L, Benzothiazepine radioligand binding (ligand: [3H] Diltiazem); type: cell membranes, Rattus norvegicus, Wistar, Brain, Membrane; details: Not Active = under 50% inhibition at 10 µM

Compound | IC50 [1] | Ki [1] | IC50 [2] | IC50 [3] | Ki [3] | IC50 [4] | Ki [4] | IC50 [5] | IC50 [6] | Ki [6] | Ki [2] | Ki [5] | IC50 ([6]; read-out: IC50) [nM] | Ki ([6]; read-out: Ki) [nM]
COC(=O)Nc1nc2ccc(C(=O)c3ccccc3)cc2[nH]1 [MEBENDAZOLE] | Not Active | Not Active | Not Active | Not Active | Not Active | Not Active | Not Active | Not Active | Not Active | Not Active | – | – | – | –
O=[As][O-].[Na+] [SODIUM ARSENITE] | Not Active | Not Active | Not Active | Not Active | Not Active | Not Active | Not Active | Not Active | Not Active | Not Active | – | – | – | –
CS(=O)(=O)c1ccc(C2=C(c3ccccc3)C(=O)OC2)cc1 [ROFECOXIB] | Not Active | Not Active | Not Active | Not Active | Not Active | Not Active | Not Active | Not Active | Not Active | Not Active | – | – | – | –
CC1(C)[C@H](C(=O)O)N2C(=O)C[C@H]2S1(=O)=O [SULBACTAM] | Not Active | Not Active | Not Active | Not Active | Not Active | Not Active | Not Active | Not Active | Not Active | Not Active | – | – | – | –
CC(N)C12CC3CC(CC(C3)C1)C2 (configuration not stated) [RIMANTADINE] | Not Active | Not Active | Not Active | Not Active | Not Active | Not Active | Not Active | Not Active | Not Active | Not Active | – | – | – | –
CC[C@H](C)C(=O)O[C@H]1CCC=C2C=C[C@H](C)[C@H](CC[C@@H]3C[C@@H](O)CC(=O)O3)[C@H]21 [MEVASTATIN] | Not Active | Not Active | Not Active | Not Active | Not Active | Not Active | Not Active | Not Active | Not Active | Not Active | – | – | – | –
O=C(OC[C@H]1O[C@@H](OC(=O)c2cc(O)c(O)c(OC(=O)c3cc(O)c(O)c(O)c3)c2)[C@H](OC(=O)c2cc(O)c(O)c(OC(=O)c3cc(O)c(O)c(O)c3)c2)[C@@H](OC(=O)c2cc(O)c(O)c(OC(=O)c3cc(O)c(O)c(O)c3)c2)[C@@H]1OC(=O)c1cc(O)c(O)c(OC(=O)c2cc(O)c(O)c(O)c2)c1)c1cc(O)c(O)c(OC(=O)c2cc(O)c(O)c(O)c2)c1 [TANNIC ACID] | Not Active | Not Active | Not Active | Not Active | Not Active | Not Active | Not Active | Not Active | Not Active | Not Active | – | – | – | –
LEAD(IV) ACETATE | Not Active | Not Active | Not Active | Not Active | Not Active | Not Active | Not Active | Not Active | Not Active | Not Active | Not Active | Not Active | – | –
CO[C@@H]1[C@@H](OC)[C@H](C)[C@@](O)(CC(=O)O)O[C@H]1[C@H](C)[C@H]1O[C@@]2(CC[C@@](C)([C@H]3CC[C@@](C)([C@@H]4O[C@@H]([C@H]5O[C@](C)(O)[C@H](C)C[C@@H]5C)C[C@@H]4O[C@@H]4C[C@H](OC)[C@@H](OC)[C@H](C)O4)O3)O2)C[C@H](O)[C@H]1C.N [MADURAMICIN] | Not Active | Not Active | Not Active | Not Active | Not Active | Not Active | Not Active | Not Active | Not Active | Not Active | – | – | – | –
Cc1nnc(NS(=O)(=O)c2ccc(N)cc2)s1 [SULFAMETHIZOLE] | Not Active | Not Active | Not Active | Not Active | Not Active | Not Active | Not Active | Not Active | Not Active | Not Active | – | – | – | –
Cc1ccc(S(=O)(=O)NC(=O)NN2CCCCCC2)cc1 [TOLAZAMIDE] | Not Active | Not Active | Not Active | Not Active | Not Active | Not Active | Not Active | Not Active | Not Active | Not Active | – | – | – | –
CCC(C)(C)C(=O)O[C@H]1C[C@@H](C)C=C2C=C[C@H](C)[C@H](CC[C@@H]3C[C@@H](O)CC(=O)O3)[C@H]21 [SIMVASTATIN] | Not Active | Not Active | Not Active | Not Active | Not Active | Not Active | Not Active | Not Active | Not Active | Not Active | – | – | – | –
Cc1ccnc(NS(=O)(=O)c2ccc(N)cc2)n1 [SULFAMERAZINE] | Not Active | Not Active | Not Active | Not Active | Not Active | Not Active | Not Active | Not Active | Not Active | Not Active | – | – | – | –
OC[C@@H](O)[C@@H](O)[C@H](O)[C@H](O)CO [MANNITOL] | Not Active | Not Active | Not Active | Not Active | Not Active | Not Active | Not Active | Not Active | Not Active | Not Active | – | – | – | –
CCN(CC)N=O [N-NITROSODIETHYLAMINE] | Not Active | Not Active | Not Active | Not Active | Not Active | Not Active | Not Active | Not Active | Not Active | Not Active | – | – | – | –
CC(=O)O[C@]1(C(C)=O)CC[C@H]2[C@@H]3C[C@H](C)C4=CC(=O)CC[C@]4(C)[C@H]3CC[C@@]21C [MEDROXYPROGESTERONE ACETATE] | Not Active | Not Active | Not Active | Not Active | Not Active | Not Active | Not Active | Not Active | Not Active | Not Active | – | – | – | –
CCN1CCCC1CNC(=O)c1cc(S(N)(=O)=O)ccc1OC (configuration not stated) [SULPIRIDE] | Not Active | Not Active | Not Active | Not Active | Not Active | Not Active | Not Active | Not Active | Not Active | Not Active | – | – | – | –
CN1C[C@H](CNC(=O)OCc2ccccc2)C[C@@H]2c3cccc4c3c(cn4C)C[C@H]21 [METERGOLINE] | Not Active | Not Active | Not Active | Not Active | Not Active | Not Active | Not Active | Not Active | – | – | – | – | 268 | 238
CC(Cl)(Cl)Cl [TRICHLOROETHANE] | Not Active | Not Active | Not Active | Not Active | Not Active | Not Active | Not Active | Not Active | Not Active | Not Active | – | – | – | –
CC1=C(/C=C/C(C)=C/C=C/C(C)=C/C(=O)O)C(C)(C)CCC1 [TRETINOIN] | Not Active | Not Active | Not Active | Not Active | Not Active | Not Active | Not Active | Not Active | Not Active | Not Active | – | – | – | –
C=CCc1ccc2c(c1)OCO2 [SAFROLE] | Not Active | Not Active | Not Active | Not Active | Not Active | Not Active | Not Active | Not Active | Not Active | Not Active | – | – | – | –
C1CCN2C[C@@H]3C[C@@H](CN4CCCC[C@@H]34)[C@H]2C1 [SPARTEINE] | Not Active | Not Active | Not Active | Not Active | Not Active | Not Active | Not Active | Not Active | Not Active | Not Active | – | – | – | –

— ChEMBL document CHEMBL1909046, “DrugMatrix in vitro pharmacology data”
